Results: the NIST ThermoML archive (doi:10.1016/j.jct.2005.04.005)
Numbers after ± are expanded uncertainties.

Experiment: mn = molality of the nth substance listed, in mol/kg
Conditions: 101 kPa, Liquid

C1COCCOCCOCCOCCOCCO1 [1,4,7,10,13,16-hexaoxacyclooctadecane] + O
Conditions | mass density, 293.15 K [kg/m3] | mass density, 295.15 K [kg/m3] | mass density, 297.15 K [kg/m3] | mass density, 298.15 K [kg/m3] | mass density, 299.15 K [kg/m3] | mass density, 301.15 K [kg/m3] | mass density, 303.15 K [kg/m3] | mass density, 308.15 K [kg/m3] | mass density, 313.15 K [kg/m3] | speed of sound, 298.15 K [m/s]
m1 = 0.0001 | – | – | – | 997.047 ± 0.6 | – | – | – | – | – | –
m1 = 0.09578 | 1002.26 ± 0.6 | 1001.8 ± 0.6 | 1001.29 ± 0.6 | 1000.98 ± 0.6 | 1000.71 ± 0.6 | 1000.12 ± 0.6 | 999.519 ± 0.6 | 997.836 ± 0.6 | 995.959 ± 0.61 | –
m1 = 0.0958 | – | – | – | 1000.98 ± 0.6 | – | – | – | – | – | 1512.5 ± 2.2
m1 = 0.1953 | 1006.34 ± 0.62 | 1005.85 ± 0.61 | 1005.3 ± 0.61 | 1004.95 ± 0.61 | 1004.66 ± 0.61 | 1004.02 ± 0.61 | 1003.4 ± 0.61 | 1001.65 ± 0.6 | 999.701 ± 0.6 | 1527.2 ± 2.2
m1 = 0.4197 | 1015.08 ± 0.64 | 1014.51 ± 0.64 | 1013.88 ± 0.64 | 1013.44 ± 0.64 | 1013.12 ± 0.64 | 1012.39 ± 0.63 | 1011.69 ± 0.63 | 1009.76 ± 0.62 | 1007.65 ± 0.62 | 1557.3 ± 2.3
m1 = 0.5091 | 1018.38 ± 0.65 | 1017.79 ± 0.65 | 1017.12 ± 0.65 | 1016.66 ± 0.64 | 1016.33 ± 0.64 | 1015.56 ± 0.64 | 1014.82 ± 0.64 | 1012.82 ± 0.63 | 1010.65 ± 0.63 | 1568.3 ± 2.3
m1 = 0.6046 | 1021.8 ± 0.66 | 1021.17 ± 0.66 | 1020.48 ± 0.66 | 1019.99 ± 0.65 | 1019.64 ± 0.65 | 1018.84 ± 0.65 | 1018.06 ± 0.65 | 1015.99 ± 0.64 | 1013.74 ± 0.64 | 1579.6 ± 2.3
m1 = 0.7192 | 1025.77 ± 0.67 | 1025.1 ± 0.67 | 1024.37 ± 0.67 | 1023.86 ± 0.67 | 1023.49 ± 0.66 | 1022.65 ± 0.66 | 1021.82 ± 0.66 | 1019.66 ± 0.65 | 1017.33 ± 0.65 | 1592.7 ± 2.3
m1 = 0.8244 | 1029.28 ± 0.68 | 1028.57 ± 0.68 | 1027.8 ± 0.68 | 1027.28 ± 0.68 | 1026.89 ± 0.67 | 1026.01 ± 0.67 | 1025.14 ± 0.67 | 1022.9 ± 0.66 | 1020.49 ± 0.66 | 1604.2 ± 2.3
m1 = 0.9881 | 1034.49 ± 0.7 | 1033.73 ± 0.69 | 1032.91 ± 0.69 | 1032.37 ± 0.69 | 1031.95 ± 0.69 | 1031.02 ± 0.69 | 1030.1 ± 0.68 | 1027.73 ± 0.68 | 1025.21 ± 0.67 | 1621.4 ± 2.3
m1 = 1.13 | 1038.8 ± 0.71 | 1037.98 ± 0.71 | 1037.12 ± 0.7 | 1036.57 ± 0.7 | 1036.13 ± 0.7 | 1035.15 ± 0.7 | 1034.18 ± 0.7 | 1031.7 ± 0.69 | 1029.09 ± 0.68 | 1635.5 ± 2.3
m1 = 1.296 | 1043.56 ± 0.72 | 1042.68 ± 0.72 | 1041.78 ± 0.72 | 1041.22 ± 0.72 | 1040.75 ± 0.72 | 1039.72 ± 0.71 | 1038.71 ± 0.71 | 1036.12 ± 0.7 | 1033.4 ± 0.69 | 1651.2 ± 2.3
m1 = 1.484 | 1048.63 ± 0.74 | 1047.68 ± 0.74 | 1046.73 ± 0.73 | 1046.16 ± 0.73 | 1045.66 ± 0.73 | 1044.59 ± 0.73 | 1043.54 ± 0.72 | 1040.81 ± 0.72 | 1037.98 ± 0.71 | 1667.6 ± 2.4
m1 = 1.643 | 1052.69 ± 0.75 | 1051.69 ± 0.75 | 1050.69 ± 0.75 | 1050.12 ± 0.74 | 1049.6 ± 0.74 | 1048.48 ± 0.74 | 1047.4 ± 0.74 | 1044.56 ± 0.73 | 1041.64 ± 0.72 | 1680.3 ± 2.4
m1 = 2.189 | 1064.99 ± 0.79 | 1063.83 ± 0.79 | 1062.7 ± 0.79 | 1062.06 ± 0.78 | 1061.5 ± 0.78 | 1060.24 ± 0.78 | 1059.05 ± 0.77 | 1055.88 ± 0.76 | 1052.65 ± 0.75 | 1714.6 ± 2.4
m1 = 2.803 | 1076.32 ± 0.83 | 1075.11 ± 0.83 | 1073.77 ± 0.82 | 1073.02 ± 0.82 | 1072.41 ± 0.82 | 1071.01 ± 0.81 | 1069.62 ± 0.81 | 1066.1 ± 0.8 | 1062.5 ± 0.79 | 1742.3 ± 2.4
